Source: patent US8685970B2, “Quinolines and related analogs as sirtuin modulators” (GlaxoSmithKline, LLC, priority 2008, dated 2014)

Target: T1, SIRT1 (Homo sapiens, UniProt Q96EB6)
T1 sequence (Q96EB6 1-747): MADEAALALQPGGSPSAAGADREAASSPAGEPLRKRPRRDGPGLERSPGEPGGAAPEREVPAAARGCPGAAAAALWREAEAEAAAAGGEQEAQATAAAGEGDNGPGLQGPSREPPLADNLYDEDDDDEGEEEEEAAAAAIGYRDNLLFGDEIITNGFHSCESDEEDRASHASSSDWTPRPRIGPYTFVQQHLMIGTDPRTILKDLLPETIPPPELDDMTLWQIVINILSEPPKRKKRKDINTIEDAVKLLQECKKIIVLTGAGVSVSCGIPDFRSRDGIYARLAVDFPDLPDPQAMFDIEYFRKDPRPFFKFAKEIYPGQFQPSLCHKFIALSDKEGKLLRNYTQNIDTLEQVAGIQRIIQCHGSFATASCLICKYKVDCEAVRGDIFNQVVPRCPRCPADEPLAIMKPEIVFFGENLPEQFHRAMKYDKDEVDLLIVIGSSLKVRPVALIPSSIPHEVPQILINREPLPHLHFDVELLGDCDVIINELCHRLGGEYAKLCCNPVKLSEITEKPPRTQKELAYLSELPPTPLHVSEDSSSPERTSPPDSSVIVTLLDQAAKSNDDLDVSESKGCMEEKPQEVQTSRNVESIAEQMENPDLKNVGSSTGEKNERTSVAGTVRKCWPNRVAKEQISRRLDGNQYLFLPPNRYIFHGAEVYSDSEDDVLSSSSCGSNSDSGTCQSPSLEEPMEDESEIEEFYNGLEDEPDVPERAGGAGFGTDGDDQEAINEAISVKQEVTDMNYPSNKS
Experiment: Mass spectrometry based SIRT1 deacetylation assay (activation)
Assay type: biochemical
Conditions: 10 nM SIRT1, 0.5 μM peptide substrate, 120 μM βNAD+, 25 min at 25° C.
In short: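 Activation reported as EC1.5, the compound concentration producing 150% of DMSO-control deacetylation, plus maximum fold activation. Readout is mass-spectrometric ratio of deacetylated to acetylated p53-based peptide (0.5 μM) after 25 min, 25 °C, with 120 μM βNAD+ and 10 nM His-tagged human SIRT1, pH 8.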

Structure (SMILES) | % Fold Act. (percent maximum fold activation) | EC1.5 (concentration of test compound that results in 150% activation of SIRT1)
O=C(Nc1cccnc1)c1cccc2ccc(-c3ccccc3C(F)(F)F)nc12 [Compound 86] | A (Fold activation >200%) | B (EC1.5 1-25 uM)
O=C(Nc1ccncn1)c1cccc2ccc(-c3ccccc3C(F)(F)F)nc12 [Compound 87] | A (Fold activation >200%) | A (EC1.5<1.0 uM)
O=C(NC1CN2CCC1CC2)c1cccc2ccc(-c3cccc(C(F)(F)F)c3)nc12 (stereo not shown) [Compound 88] | – | C (EC1.5>25 uM)
O=C(Nc1cccc(Cl)n1)c1cccc2ccc(-c3cccc(C(F)(F)F)c3)nc12 [Compound 89] | – | C (EC1.5>25 uM)
O=C(O)c1ccc(NC(=O)c2cccc3ccc(-c4cccc(C(F)(F)F)c4)nc23)o1 [Compound 90] | B (Fold Activation <200%) | B (EC1.5 1-25 uM)
CCOC(=O)c1csc(NC(=O)c2cccc3ccc(-c4cccc(C(F)(F)F)c4)nc23)n1 [Compound 91] | A (Fold activation >200%) | A (EC1.5<1.0 uM)
O=C(Nc1cccc2ccc(-c3ccccc3OC(F)(F)F)nc12)c1cscn1 [Compound 92] | A (Fold activation >200%) | A (EC1.5<1.0 uM)
CS(=O)(=O)c1ccccc1-c1ccc2cccc(NC(=O)c3cscn3)c2n1 [Compound 93] | A (Fold activation >200%) | A (EC1.5<1.0 uM)
O=C(NC1CCCC1)c1cccc2ccc(-c3cccc(OC4CCNCC4)c3)nc12 [Compound 94] | A (Fold activation >200%) | B (EC1.5 1-25 uM)
O=C(NCc1cccnc1)c1cccc2ccc(-c3cccc(OC4CCNCC4)c3)nc12 [Compound 95] | A (Fold activation >200%) | B (EC1.5 1-25 uM)
O=C(Nc1nccs1)c1cccc2ccc(-c3ccc(C(F)(F)F)cc3)nc12 [Compound 96] | – | C (EC1.5>25 uM)
O=C(Nc1ccccn1)c1cccc2ccc(-c3ccc(C(F)(F)F)cc3)nc12 [Compound 97] | – | C (EC1.5>25 uM)
O=C(Nc1cccnc1)c1cccc2ccc(-c3ccc(C(F)(F)F)cc3)nc12 [Compound 98] | – | C (EC1.5>25 uM)
O=C(Nc1ccncn1)c1cccc2ccc(-c3ccc(C(F)(F)F)cc3)nc12 [Compound 99] | – | C (EC1.5>25 uM)
O=C(Nc1cccnn1)c1cccc2ccc(-c3cccc(C(F)(F)F)c3)nc12 [Compound 100] | A (Fold activation >200%) | A (EC1.5<1.0 uM)
O=C(O)c1csc(NC(=O)c2cccc3ccc(-c4cccc(C(F)(F)F)c4)nc23)n1 [Compound 101] | A (Fold activation >200%) | B (EC1.5 1-25 uM)
O=C(NC1CCCC1)c1cccc2ccc(-c3cccc(O[C@@H]4CCNC4)c3)nc12 [Compound 102] | A (Fold activation >200%) | B (EC1.5 1-25 uM)
O=C(NCc1ccncc1)c1cccc2ccc(-c3cccc(O[C@@H]4CCNC4)c3)nc12 [Compound 103] | A (Fold activation >200%) | B (EC1.5 1-25 uM)
FC(F)(F)c1cccc(-c2ccc3cccc(CNc4nccs4)c3n2)c1 [Compound 104] | – | C (EC1.5>25 uM)
FC(F)(F)c1cccc(-c2ccc3cccc(CNc4cccnc4)c3n2)c1 [Compound 105] | – | C (EC1.5>25 uM)
CS(=O)(=O)c1ccc(-c2ccc3cccc(NC(=O)c4cscn4)c3n2)cc1 [Compound 106] | B (Fold Activation <200%) | B (EC1.5 1-25 uM)
O=C(Nc1cccc2ccc(-c3ccc4c(c3)OCO4)nc12)c1cscn1 [Compound 107] | B (Fold Activation <200%) | A (EC1.5<1.0 uM)
O=C(Nc1nccs1)c1cccc2ccc(-c3cccc(N4CCOCC4)c3)nc12 [Compound 108] | A (Fold activation >200%) | A (EC1.5<1.0 uM)
O=C(Nc1ccccn1)c1cccc2ccc(-c3cccc(N4CCOCC4)c3)nc12 [Compound 109] | A (Fold activation >200%) | A (EC1.5<1.0 uM)
O=C(Nc1cccnc1)c1cccc2ccc(-c3cccc(N4CCOCC4)c3)nc12 [Compound 110] | A (Fold activation >200%) | A (EC1.5<1.0 uM)
O=C(Nc1ccncn1)c1cccc2ccc(-c3cccc(N4CCOCC4)c3)nc12 [Compound 111] | A (Fold activation >200%) | A (EC1.5<1.0 uM)
O=S(=O)(Nc1cccc2ccc(-c3cccc(OC(F)(F)F)c3)nc12)N1CCCC1 [Compound 112] | – | C (EC1.5>25 uM)

Second part, the compound after the results:

% Fold Act. (percent maximum fold activation) | EC1.5 (concentration of test compound that results in 150% activation of SIRT1) | Structure (SMILES)
– | C (EC1.5>25 uM) | O=S(=O)(Nc1nccs1)Nc1cccc2ccc(-c3cccc(OC(F)(F)F)c3)nc12 [Compound 113]
– | C (EC1.5>25 uM) | O=S(=O)(Nc1cccnc1)Nc1cccc2ccc(-c3cccc(OC(F)(F)F)c3)nc12 [Compound 114]
B (Fold Activation <200%) | B (EC1.5 1-25 uM) | O=S(=O)(Nc1cccc2ccc(-c3cccc(OC(F)(F)F)c3)nc12)N1CCNCC1 [Compound 115]
– | C (EC1.5>25 uM) | O=C(Nc1nccs1)c1cccc2ncc(-c3ccccc3)nc12 [Compound 116]
B (Fold Activation <200%) | B (EC1.5 1-25 uM) | O=C(Nc1cccnc1)c1cccc2ncc(-c3ccccc3)nc12 [Compound 117]
B (Fold Activation <200%) | B (EC1.5 1-25 uM) | O=C(Nc1ccccn1)c1cccc2ncc(-c3ccccc3)nc12 [Compound 118]
A (Fold activation >200%) | A (EC1.5<1.0 uM) | O=C(Nc1cccc2ccc(-c3cccc(CN4CCCC4)c3)nc12)c1cscn1 [Compound 119]
A (Fold activation >200%) | A (EC1.5<1.0 uM) | O=C(Nc1cccc2ccc(-c3cccc(CN4CCOCC4)c3)nc12)c1cscn1 [Compound 120]
A (Fold activation >200%) | A (EC1.5<1.0 uM) | O=C(Nc1cccc2ccc(-c3cccc(CN4CCNCC4)c3)nc12)c1cscn1 [Compound 121]
A (Fold activation >200%) | A (EC1.5<1.0 uM) | CN(C)Cc1cccc(-c2ccc3cccc(NC(=O)c4cscn4)c3n2)c1 [Compound 122]
– | C (EC1.5>25 uM) | O=C(Nc1nccs1)c1cccc2ncc(-c3cccc(C(F)(F)F)c3)nc12 [Compound 123]
B (Fold Activation <200%) | A (EC1.5<1.0 uM) | O=C(Nc1cccnc1)c1cccc2ncc(-c3cccc(C(F)(F)F)c3)nc12 [Compound 124]
– | C (EC1.5>25 uM) | O=C(Nc1nccs1)c1cccc2ncc(-c3cccc(OC(F)(F)F)c3)nc12 [Compound 125]
B (Fold Activation <200%) | B (EC1.5 1-25 uM) | O=C(Nc1cccnc1)c1cccc2ncc(-c3cccc(OC(F)(F)F)c3)nc12 [Compound 126]
– | C (EC1.5>25 uM) | O=C(Nc1ccccn1)c1cccc2ncc(-c3cccc(OC(F)(F)F)c3)nc12 [Compound 127]
– | C (EC1.5>25 uM) | O=C(Nc1ccncn1)c1cccc2ncc(-c3cccc(OC(F)(F)F)c3)nc12 [Compound 128]
